The values below are quoted from earlier work in patent publication EP4772635A1, “RNAI AGENT TARGETING APP AND PHARMACEUTICAL USE THEREOF” (Tuojie Biotech (Shanghai) Co., Ltd., priority 2023, dated 2025).

The structures appear in SMILES notation.

The conditions of the series: octanol-water partition coefficient, illustrative values in the definitions.

As for `NCCCCCCO` [6-aminohexanol], the logKow result is “about 0.7”.

With `CC(C)CCC[C@@H](C)[C@H]1CC[C@H]2[C@@H]3CC=C4C[C@@H](OC(=O)NCCCCCCO)CC[C@]4(C)[C@H]3CC[C@]12C` [cholesteryl N-(hexan-6-ol)carbamate], the logKow is reported as 10.7.
